Here are results for five substances from US20040058851A1, “Specific autoimmune reactions against isomerised/optically inverted epitopes: application for diagnosis of autoimmune diseases” (priority 1999, published 2004).

For assay [1], the system named is human immunoglobulin in sera from patients with multiple sclerosis. In words: Homogeneous RIA with 125I BSA-BS3 MBP octapeptide tracer in MS and control sera (Example 6). The format is binding. Particulars: free peptide 10 μg/ml, 25 μl; % inhibition higher in MS sera than control sera (p=0.008); FIG. 9C. The source says: For this purpose the MBP derived octapeptide Pro-Ser-Glu-γ-Gly-Lys-Gly-Arg-Gly (γL) was manufactured synthetically using standard FMOC chemistry. The peptide was conjugated to bovine serum albumin […] by Bis-[sulfosuccinimidyl]suberate(BS^3) according to the manufacturers instructions (Pierce) and iodinated with ^125I using the chloramine T protocol as described in Example 4.
Serum from 9 MS-patients and 8 healthy persons are reacted overnight with ^125I—BSA-S^3-Pro-Ser-Glu-y-Gly-Lys-Gly-Arg-Gly followed by precipitation of immune complexes with protein A Sepharose. Serum samples are diluted 1:200 in IMP buffer. The ^125I BSA-BS^3-Pro-Ser-Glu-y-Gly-Lys-Gly-Arg-Gly tracer is diluted in IMP buffer (to an activity of 100000 CPM/25 μl). Seventy-five Al of diluted serum sample is mixed with 25 μl tracer and 25 μl of either IMP buffer or free (unconjugated/unlabelled) Pro-Ser-Glu-y-Gly-Lys-Gly-Arg-Gly peptide (in a concentration of 10 μg/ml in IMP buffer) is added to this mixture. This mixture incubated overnight at 4° C. Protein A Sepharose (PAS) 20 μl/sample vial is weighed out and washed 3 times with 10 ml IMP washing buffer, and transferred to eppendorf 1.5 ml tubes using a repeater pipette. The PAS is sedimented by centrifugation at 2000 RPM 2 min., and the supernatant is aspirated using a suction device (or a pipette). […]

The next assay deals with RA autoantibodies. In words: Competition ELISA: sera pre-incubated with peptides, then Thy-GA-Trp-Leu-*Asx-Gly-Lys-Glu-Tyr coated plates (Example 3). The format is binding, human. Particulars: 6 RA sera; 50 μl competitor at 50 μg/ml; 17 hours at 4° C.; FIG. 6. On the procedure:
The binding of RA autoantibodies to the Thy-GA-Trp-Leu-*Asx-Gly-Lys-Glu-Tyr coated plates as described above could be competed out by pre-incubating the sera with Trp-Leu-*Asx-Gly-Lys-Glu-Tyr peptide in solution. The experiment was carried out as follows. Serum samples were diluted one-hundred fold in 10 mM Na-phosphate, 140 mM NaCl, 0.1% tween-20, 1% BSA pH 7.4 (assay buffer). Two-hundred μl was added to 1.5 ml polypropylene tubes followed by addition of 50 μl of the following reagents dissolved in assay buffer at a concentration of 50 μg/ml:
1. Trp-Leu-Asp-β-Gly-Lys-Glu-Tyr. (βL form of the epitope)
2. Trp-Leu-Asn-Gly-Lys-Glu-Tyr (αL form of the epitope)
3. Thy-GA-Trp-Leu-*Asx-Gly-Lys-Glu-Tyr conjugate (prepared as described in example 2).
The tubes were placed at 4° C. for 17 hours, and one-hundred μl of the mixture was added into MTP coated with Thy-GA-Trp-Leu-*Asx-Gly-Lys-Glu-Tyr conjugate. The assay was performed as described above under example 2.

The test system of assay [2] is auto-antibodies reactive with isomerised IgG Fc Asn-315 derived peptides. Put plainly: Homogeneous RIA with 125I Thy-GA-Trp-Leu-*Asx-Gly-Lys-Glu-Tyr tracer, competition with peptides (Example 4). The assay is classed as binding, human. The conditions noted are these: 25 μl of 100, 1000 or 10,000 ng/ml competitor; peptide significant in the highest concentration; P=0.01 by Student's T-Test; FIG. 8. On the procedure:
A homogeneous RIA assay was developed for measurement of auto-antibodies with reactivity towards the isomerised form of the epitope Trp-Leu-Asn-Gly-Lys-Glu-Tyr derived from the IgG CH^2 region. The assay was performed by incubating serum samples with ^125I Thy-GA-Trp-Leu-*Asx-Gly-Lys-Glu-Tyr over-night followed by precipitation of immune-complexes with protein A Sepharose.
Serum samples are diluted 1:200 in IMP buffer (IMP-buffer: 10 mM Na-Phosphate, pH 7.4, 140 mM NaCl, 5 mM EDTA, 0.5% Triton X-100, 0.1% BSA, 10 μg/ml soy-bean trypsin inhibitor). A Thy-GA-Trp-Leu-*Asx-Gly-Lys-Glu-Tyr conjugate is prepared as described in example 2 and iodinated with ^125I using the chloramine T protocol: 100 μg of the conjugate is diluted in 0.25 M Na2HPO4 to a total volume of 140 μl. 1.5 mCi Na^125I is added followed by 10 μL Chloramin-T (1 mg/ml, prepared freshly). The solution is vortexed for 30 seconds and 150 μL methionine (1 mg/ml) is added and immediately vortexed for 120 sec. The tracer is purified on size exclusion column (type: BIOSEP SEC S-2000, size: 300×7.80 mm) equilibrated with PBS containing 1% BSA Flow rate 1.0 ml/min. 500 μl fractions are collected and analysed in a scintillation counter (γ-counter). The fractions containing the tracer are pooled and used in the homogeneous RIA assay format. […]

Assay [3] relates to immunoaffinity purified RA auto-antibodies. Put plainly: Immuno-blotting of cellulose-bound spot peptides with immunoaffinity purified RA auto-antibodies (Example 5). The assay is classed as binding, human. The conditions noted are these: IgM RF eluted from IgG Sepharose, 1 μg/mL. An excerpt: Analysis of IgM auto-antibodies opens up the possibility of removing endogenous IgG from the serum samples prior to analysis for auto-antibodies.
1. IgG is coupled to CNBr activated Sepharose using the manufacturers instructions (Pharmacia, Upsala, Sweden).
2. The IgG Sepharose is packed in a suitable column (i.e. a disposable DG10 column, BioRad laboratories, Richmond, Calif.). The column is washed with at least 10 column volumes PBS and with 10 column volumes 0.1 M sodium acetate, 0.15 M sodium chloride pH 3.5 and finally equilibrated in PBS.
3. Serum from RA patients is diluted 10 times in PBS and loaded on the column. The column is washed with PBS until the absorbency (OD 280 nm) reaches base-line.
4. Bound RF's are eluted with 0.1 M sodium acetate, 0.15 M sodium chloride pH 3.5.
5. IgM is separated from IgG and IgA by gel-filtration on a Sephadex G-200 column in 0.1 M sodium acetate, 0.15 M sodium chloride pH 3.5.
6. Eluted IgM is diluted in PBS-BT to 1 μg/mL and assayed as described below.
Seven amino-acid peptides extending over the Asn-315 residue were synthesised by spot synthesis using Whatman 540 paper (Maidstone, U.K.), using the previously described procedures (Frank, 1992, Kramer et al 1994). The peptides were automatically prepared using a spot synthesis method (Abimed, Langenfeld, F R G). The following peptides were synthesised, covalently attached via the carboxy-terminus: […]

The test system of assay [4] is auto-antibodies in RA sera. Put plainly: ELISA of serum auto-antibodies on MTP coated with Thy-GA peptide conjugate (Example 2). The assay is classed as binding, human. Particulars: RA RF+ sera vs RA RF- sera vs control sera; serum diluted one-hundred fold; conjugate coated at 10 μg/ml; FIG. 5. An excerpt: It was investigated whether auto-antibodies would recognise an Asn-315 derived septa-peptide and whether such auto-antibodies are a characteristic feature of rheumatoid arthritis. In order to carry out such investigations the IgG Fc Asn-315 derived (βL) septa-peptide Trp-Leu-Asp-β-Gly-Lys-Glu-Tyr, was manufactured synthetically. The peptide used was a preparation of linear (αL form) Trp-Leu-Asn-Gly-Lys-Glu-Tyr peptide heated to promote isomerisation by the following procedure. The peptide was dissolved in the buffer and heated for 4 hours at 90° C. to promote isomerisation and/or optical inversion. The resulting mix of isomerised (βL) optically inverted (αD and βD) and linear (αL) peptides were analysed by RP-HPLC using a 15-35% acetonitrile gradient in 0.1% TFA over 10 minutes with a flow rate of 1 ml/min, and the isomerisation status of the resulting peaks were studied by amino-acid analysis as described above. This peptide was dissolved at 5 mg/ml in 0.2 M Na-Phosphate pH 9.2. […]
0.5 ml thyroglobulin (30 mg/ml) in 0.1 M Na-phosphate buffer pH 8.0, was added drop-wise (over 2 minutes) and under constant mixing to 0.5 mL of the following solution: 10% GA, 40% H2O, 50% 0.2 M Na-Phosphate pH 8.0. […] The final volume was adjusted to 1500 μL and the protein concentration was determined by a BioRad protein assay performed according to the manufacturers instructions. […]
Background: An ELISA detects its analyte on a solid surface through an enzyme-linked reagent.

No end group written: not given here.

Take Pro-Ser-Glu-γ-Gly-Lys-Gly-Arg-Gly: in assay [1], the “inhibition of binding of the 125I conjugate to human immunoglobulin by free peptide” value was “specifically inhibited”.

For Trp-Leu-Asp-β-Gly-Lys-Glu-Tyr, in the assay with RA autoantibodies, the “competition of the binding of RA autoantibodies to Thy-GA-Trp-Leu-*Asx-Gly-Lys-Glu-Tyr coated plates” value is given as “able to compete out the binding”. Further, the “reactivity in RIA competition (percent inhibition in the presence of competing peptide), group basis” value in assay [2] is reported as “significant reactivity”.

On to Trp-Leu-Asp-β-Gly-lys-Glu-Tyr [VII], for which the “reactivity of purified RA auto-antibodies towards cellulose-bound peptide” value in assay [3] was “strong reactivity”.

As to “Trp-Leu-*Asx-Gly-Lys-Glu-Tyr (WLNGKEY; not fully specified (residue 3); printed as Trp-Leu-*Asx-Gly-Lys-Glu-Tyr; also: position 3 Asx: mixture of αD Asn/Asp, βD and βL Asp after heat isomerisation) [linear Trp-Leu-Asn-Gly-Lys-Glu-Tyr heated 4 hours at 90° C; in b143 coated as Thy-GA conjugate]”, the “competition of the binding of RA autoantibodies to Thy-GA-Trp-Leu-*Asx-Gly-Lys-Glu-Tyr coated plates” value in the assay on RA autoantibodies is “competed out”. The “auto-antibody reactivity (ELISA signal, absorbency at 450 nm) compared between patient groups” value in assay [4] is “elevated auto-antibody reactivity”.

With “His-Gln-Asp-Trp-Leu-Asp-β-Gly [peptide IV]”, in assay [3], the “reactivity of purified RA auto-antibodies towards cellulose-bound peptide” value was “strong reactivity”.
